Where two headings read alike, the source gives them in different places. Blank lines part the entries; values can stand above or below the molecule they belong to.
Tests used:
[1] = target: T1, histidinol dehydrogenase from cabbage (Brassica oleracea var. capitata, UniProt P24226); experiment: Histidinol dehydrogenase enzyme assay (spectrophotometric, NAD+ reduction at 340 nm); format: biochemical; details: for Relative Activity: metal ion 0.5 mM, activity after 3 min reaction time, None = 100
T1 construct: Spring cabbage heads are homogenized using a kitchen mixer; from tissue; host or cells: mature spring cabbage heads
T1 sequence (P24226 32-469): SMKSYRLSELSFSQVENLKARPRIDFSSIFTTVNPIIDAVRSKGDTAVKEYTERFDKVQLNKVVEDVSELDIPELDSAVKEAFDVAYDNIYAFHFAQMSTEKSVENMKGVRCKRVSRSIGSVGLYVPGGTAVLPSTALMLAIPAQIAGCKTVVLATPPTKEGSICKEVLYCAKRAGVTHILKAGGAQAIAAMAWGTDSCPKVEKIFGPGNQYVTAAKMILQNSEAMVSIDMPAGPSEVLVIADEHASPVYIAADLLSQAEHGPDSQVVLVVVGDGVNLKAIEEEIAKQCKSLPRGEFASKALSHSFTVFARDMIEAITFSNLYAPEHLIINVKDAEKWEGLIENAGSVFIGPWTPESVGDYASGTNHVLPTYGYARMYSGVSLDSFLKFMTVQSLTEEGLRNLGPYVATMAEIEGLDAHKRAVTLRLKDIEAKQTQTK
Method: (§1) The enzyme activity is assayed spectrophotometrically by measuring the increase in absorbence at 340 nm due to the reduction of NAD+in a Hitachi U-3120 spectrophotomer. The reaction mixture contained 150 mM Gly/NaOH buffer, pH 9.2, 0.5 mM, MnCl , 2 mM NAD+, 5 mM histidinol, and 2-5 mU of enzyme sample in total volume of 0.5 ml. The reaction is started with the addition of histidinol, and incubated at 30° C. A reference sample containing water instead of histidinol is always run. One unit of enzyme catalyzes the formation of 2 μmol of NADH per min under the assay conditions.
as §1, with “absorbance” for “absorbence”, “spectrophotometer.” for “spectrophotomer.”, “pH9.2,” for “pH 9.2,”, “MnCl2,” for “MnCl ,”, “NAD +,” for “NAD+,”, “catalyzing” for “catalyzes”

[2] = tested on: histidinol dehydrogenase from S. typhimurium; details: cited from earlier work
[3] = tested on: histidinol dehydrogenase from wheat germ; details: cited from earlier work
[4] = substrate: N[C@H](CO)Cc1c[nH]cn1; experiment: purified protein, by the assay type; details: other: standard assay conditions; pH 9.2; 30.0 °C
[5] = substrate: NC(=O)c1ccc[n+]([C@@H]2O[C@H](COP(=O)([O-])OP(=O)(O)OC[C@H]3O[C@@H](n4cnc5c(N)ncnc54)[C@H](O)[C@@H]3O)[C@@H](O)[C@H]2O)c1; experiment: Histidinol dehydrogenase enzyme assay (spectrophotometric, NAD+ reduction at 340 nm); format: biochemical, cabbage (Brassica oleracea); details: other: standard assay conditions; pH 9.2; 30.0 °C
Method: as §1
as §1, with “absorbance” for “absorbence”, “spectrophotometer.” for “spectrophotomer.”, “pH9.2,” for “pH 9.2,”, “MnCl2,” for “MnCl ,”, “NAD +,” for “NAD+,”, “catalyzing” for “catalyzes”

[6] = reaction buffer 150 mM Gly/NaOH, pH9.2

Relative Activity [1]: 34%
influence of divalent metal ion on the enzyme reaction (in words) [1, 6]: caused inhibition
Molecule: [Zn+2] [Zn^2+]

Molecule: NC(=O)c1ccc[n+]([C@@H]2O[C@H](COP(=O)([O-])OP(=O)(O)OC[C@H]3O[C@@H](n4cnc5c(N)ncnc54)[C@H](O)[C@@H]3O)[C@@H](O)[C@H]2O)c1 [NAD+]
Km ([2]; read-out: Km of the enzyme from S. typhimurium for NAD+): 1000 µM
Km ([3]; partially purified enzyme, read-out: Km of the enzyme from wheat germ for NAD+): 140 µM

Molecule: N[C@H](CO)Cc1c[nH]cn1 [L-histidinol]
Km ([2]; read-out: Km of the pure enzyme from S. typhimurium for L-histidinol, pure enzyme): 16 µM
Km ([3]; read-out: Km of the partially purified enzyme from wheat germ for L-histidinol): 8.8 µM

Molecule: [Ba+2] [Ba^2+]
Relative Activity [1]: 65%
influence of divalent metal ion on the enzyme reaction (in words) [1, 6]: caused inhibition

Molecule: [Mn+2] [Mn^2+]
Relative Activity [1]: 126%
influence of divalent metal ion on the enzyme reaction (in words) [1, 6]: stimulation of the enzyme activity
stimulation of the reaction compared to control without any divalent metal ion [1, 6]: 26%
effect of metal ion on the reaction catalyzed by the S. typhimurium enzyme (in words) [2]: stimulated

Relative Activity [1]: 36%
influence of divalent metal ion on the enzyme reaction (in words) [1, 6]: caused inhibition
Molecule: [Ca+2] [Ca^2+]

Relative Activity [1]: 24%
influence of divalent metal ion on the enzyme reaction (in words) [1, 6]: caused inhibition
Molecule: [Cu+2] [Cu^2+]

Relative Activity [1]: 54%
influence of divalent metal ion on the enzyme reaction (in words) [1, 6]: caused inhibition
Molecule: [Mg+2] [Mg^2+]

Molecule: [Ni+2] [Ni^2+]
Relative Activity [1]: 46%
influence of divalent metal ion on the enzyme reaction (in words) [1, 6]: caused inhibition

B1: histidinol dehydrogenase from cabbage (Brassica oleracea var. capitata) (protein)
chain: T1 sequence (P24226 32-469)
notes: Spring cabbage heads are homogenized using a kitchen mixer; from tissue; host or cells: mature spring cabbage heads
Km [4]: 15.5 µM
Km [5]: 42 µM

Reference: US5290926A, “Isolated DNA Encoding plant histidinol dehydrogenase” (Ciba-Geigy Corporation, priority 1990, dated 1994)
